Reference: patent US20240327787A1, “CULTURE MEDIUM, COATING MATRIX AND METHOD FOR EXPANDING MIDBRAIN DOPAMINERGIC PROGENITOR CELLS” (NUWACELL BIOTECHNOLOGIES CO., LTD., priority 2022, published 2024)
Structures can show the parent of a compound that is named as a salt.

System: imDAPs
Experiment: Flow cytometry analysis of FOXA2 expression in expanded imDAPs
Type: cell-based, human
Details: VTN-coated
Experimental: 1. Individualize and collect cells by either Accutase or TrypLE treatment.
2. Wash cells with 1 ml PBS and pellet cells at 250×g for 15 sec.
3. Remove supernatant, add ˜200 μl of 4% PFA, mix and fix for 10 min at RT.
4. Pellet cells at 350×g for 5 min.
5. Wash cells by 1 ml of FACS buffer and pellet cells at 350×g for 5 min.
6. Remove supernatant, add 200 μl/tube of FACS buffer/0.1% TritonX, mix for 10 min at RT.
7. Wash cells by 1 ml of FACS buffer and pellet cells at 350×g for 5 min.
8. Remove supernatant, add 200 μl/tube of primary antibody diluted in FACS buffer, mix gently, and incubate for 30 min at RT.
9. Wash cells by 1 ml of FACS buffer and pellet cells at 350×g for 5 min.
10. Remove supernatant, and add 200 μl of secondary antibody diluted in FACS buffer, mix gently, and incubate for 30 min at RT.
11. Wash cells by 1 ml of FACS buffer and pellet cells at 300×g for 5 min.
12. Remove supernatant, add 200 μl of FACS buffer, and run samples on the flow cytometry.
imDAPs were produced according to the method described in CN201910169525.0. The imDAPs (P0) were seeded on VTN-coated plates (1 μg/cm^2) at a low density of 1×10^4 cells/cm^2, and cultured in the expansion medium (50% DMEM/F12, 50% Neurobasal™ medium, 1% (v/v) Glutamax, 2% (v/v) B27 (50×), 0.2 μM LDN193189, 3 μM CHIR99021, 100 ng/mL FGF8b) with either 5 μM Blebbistatin or 10 μM Y27632. Medium was replaced every 3rd day. At Day 6, cells were collected for FACS analysis.
imDAPs were produced according to the method described in CN201910169525.0. The imDAPs (P0) were seeded on DLL4-coated (1 μg/cm^2), VTN-coated (1 μg/cm^2) and DLL4/VTN-coated (1 μg/cm^2 for each) plates at a low density of 1×10^4 cells/cm^2 respectively, and cultured in the expansion medium in the absence or presence of 5 μM SB431542. Medium was replaced every 3rd day until reaching 100% confluence (6 days) for cell collection. The typical cell morphology on day 4 was recorded (FIG. 4A). The cell number of each group was counted by Vi-cell cytometer (FIG. 4B). The cells of each group were stained with Foxa2-PE antibody (BD, #561589), the percentage of Foxa2+ imDAPs were analyzed by flow cytometry (FIG. 4C). The expansion medium used in this example contained the following components: 50% DMEM/F12, 50% Neurobasal™ medium, 1% (v/v) Glutamax, 1% (v/v) B27, 50 μg/ml ascorbic acid, 0.2 μM LDN193189, 100 ng/ml FGF8b, 3 μM CHIR99021 and 10 µM Y27632.
imDAPs were produced according to the method described in CN201910169525.0. The imDAPs (P0) were seeded on DLL4/VTN-coated (1 μg/cm^2 for each) plates at a low density of 1×10^4 cells/cm^2, and cultured in the expansion medium (EM1, EM2, EM3, EM4). Medium was replaced every 3rd day until reaching 100% confluence (6 days) for cell collection. EM1 used in Example 9 contained the following components: 50% DMEM/F12, 50% Neurobasal™ medium, 1% (v/v) Glutamax, 1% (v/v) B27 (50×), 50 μg/ml ascorbic acid, 3 μM CHIR99021, 5 μM SB431542 and 10 μM Y27632. EM2 used in Example 9 contained the following components: 50% DMEM/F12, 50% Neurobasal™ medium, 1% (v/v) Glutamax, 1% (v/v) B27 (50×), 50 μg/ml ascorbic acid, 0.2 μM LDN193189, 3 μM CHIR99021, 5 μM SB431542 and 10 μM Y27632. EM3 used in Example 9 contained the following components: 50% DMEM/F12, 50% Neurobasal™ medium, 1% (v/v) Glutamax, 1% (v/v) B27 (50×), 50 μg/mL ascorbic acid, 0.2 μM LDN193189, 100 ng/ml FGF8b, 3 μM CHIR99021, 5 μM SB431542 and 10 μM Y27632. […]

SMILES: C[C@@H](N)[C@H]1CC[C@H](C(=O)Nc2ccncc2)CC1 [Y27632, (R)-(+)-trans-4-(1-aminoethyl)-N-(4-pyridyl) cyclohexanecarboxamide dihydrochloride]
- percentage of Foxa2-expressing cells (FIG. 2) (10 μM Y27632 vs 5 μM Blebbistatin in expansion medium, 1×10^4 cells/cm^2, Day 6): capable of improving the percentage of Foxa2-expressing cells than Blebbistatin
- percentage of Foxa2-expressing cells during passages (expansion medium with 10 μM Y27632): still decreased during passages
